Results taken from patent US7666901B2, “Analogs of 17-hydroxywortmannin as PI3K inhibitors” (Wyeth, priority 2004, dated 2010).
Converted amounts (≈) assume the structure as drawn.

Tests used:
[1] = tested on: T1, PI3K; assay: Fluorescence polarization assay for PI3K; format: biochemical; settings: for IC50: Table 2
T1 construct: PI3K FP IC50
How it was run: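 PI3K was preincubated with compound at 1% DMSO final, then reacted with PIP2/ATP substrate for 30-60 min. The reaction was stopped with a detector mix giving 10 nM red probe and 70 nM GST-GRP. Fluorescence polarization (mP, Tamra filters) was read 30-90 min later and IC50 determined.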

[2] = tested on: MDA468 (human breast cancer cell); assay: Cell proliferation (MTS) assay, MDA468; format: cell-based; settings: Homo sapiens, 72 h, three days treatment
How it was run: (§1)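 Cells plated at about 3000 per well in RPMI-1640/10% FBS were dosed with compound one day later. Viability was read by MTS conversion (absorbance 490 nm, 1–2 h) three days after treatment began. Effect is expressed as percent of vehicle-treated growth on the same plate.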

[3] = tested on: DU145 (human prostate carcinoma/lymphocytic leukemia); assay: Cell proliferation (MTS) assay, DU145; format: cell-based; settings: Homo sapiens, DU-145, 72 h, three days treatment
How it was run: as §1

[4] = molecular target: T2, Human TOR (Homo sapiens, UniProt P42345); assay: Human TOR (mTOR) kinase assay, DELFIA format; format: biochemical
T2 construct: FLAG
How it was run: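 Purified FLAG-TOR (800 ng/mL) phosphorylates His6-S6K ([…]) with […] ATP in Hepes pH 7.4 buffer containing MnCl2, 2 h at room temperature. Phospho-Thr389 S6K detected by DELFIA using Europium-labelled anti-P(T389)-p70S6K antibody; enzyme inhibition calculated from signal.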

[5] = tested on: LNCaP (human prostate carcinoma); assay: Cell proliferation (MTS) assay, LNCaP; format: cell-based; settings: Homo sapiens, LNCaP, 72 h, three days treatment
How it was run: as §1

[6] = tested on: phosphor-AKT (S473) in Rat1 cells; assay: Rat1-IGF1 assay (IGF-1 induced phospho-AKT immunoblot); format: cell-based, rat; settings: Rattus norvegicus
Protocol: Rat1 cells are plated in 6-well culture plates and serum-starved for 24 hours. Serum-starved cells are treated either with control vehicle or with various concentrations of 17-HWT for 2 hours, stimulated by IGF-1 (100 ng/mL) for 30 minutes. Total cellular lysates are prepared using NuPAGE-LDS sample buffer (Invitrogen), sonicated and then clarified by centrifugation. Equal amounts of proteins are subject to immunoblotting analysis using NuPAGE electrophoresis system and probed with phosphor-AKT (S473), total AKT antibodies (Signaling Technology).

[7] = tested on: MDA435 (human breast adenocarcinoma); assay: Cell proliferation (MTS) assay, MDA435; format: cell-based; settings: Homo sapiens, MDA435, 72 h, three days treatment
How it was run: as §1

Row | SMILES | PI3K FP IC50 ([1]; Table 1) [µg/mL] | IC50 ([2]; Table 1) [µg/mL] | IC50 ([3]; Table 1) [µg/mL] | IC50 ([4]; Table 1) [nM] | IC50 ([5]; Table 1) [µg/mL] | IC50 ([6]; Table 1) [µg/mL] | IC50 ([7]; Table 1) [µg/mL] | IC50 [1] [nM] | IC50 ([2]; Table 2) [µg/mL] | IC50 ([3]; Table 2) [µg/mL] | IC50 ([4]; Table 2) [nM] | IC50 ([5]; Table 2) [µg/mL] | IC50 ([6]; Table 2) [µg/mL] | IC50 ([7]; Table 2) [µg/mL]
1 | COC[C@H]1OC(=O)/C(=C/Nc2ccccc2)C2=C(O)C(=O)C3=C([C@H](OC(C)=O)C[C@]4(C)[C@@H](O)CC[C@@H]34)[C@]21C [Compound 3, (1E,4S,4aR,5R,6aS,7S,9aR)-1-(anilinomethylene)-7,11-dihydroxy-4-(methoxymethyl)-4a,6a-dimethyl-2,10-dioxo-1,2,4,4a,5,6,6a,7,8,9,9a,10-dodecahydroindeno[4,5-h]isochromen-5-yl acetate] | 0.228 | 5 | 12 | 9170 | 3.5 | > 0.1 | 15 | – | – | – | – | – | – | –
2 | COCC1OC(=O)C(=CN2CCC(C(=O)OC)CC2)C2=C(O)C(=O)C3=C(C(OC(C)=O)CC4(C)C(O)CCC34)C21C (stereo not shown) [Compound 22, 1-(11-Acetoxy-6,17-dihydroxy-1-methoxymethyl-10,13-dimethyl-3,7-dioxo-1,7,10,11,12,13,14,15,16,17-decahydro-2-oxa-cyclopenta[a]phenanthren-4-ylidenemethyl)-piperidine-4-carboxylic acid methyl ester] | – | – | – | – | – | – | – | 52 | 3.5 (≈ 6.1 µM) | 17 (≈ 29.6 µM) | 1690 | 0.29 (≈ 0.506 µM) | 0.1 (≈ 0.174 µM) | 18 (≈ 31.4 µM)
3 | COCC1OC(=O)C(=CN2CCC(C(=O)O)CC2)C2=C(O)C(=O)C3=C(C(OC(C)=O)CC4(C)C(O)CCC34)C21C (stereo not shown) [Compound 23, 1-(11-Acetoxy-6,17-dihydroxy-1-methoxymethyl-10,13-dimethyl-3,7-dioxo-1,7,10,11,12,13,14,15,16,17-decahydro-2-oxa-cyclopenta[a]phenanthren-4-ylidenemethyl)-piperidine-4-carboxylic acid] | – | – | – | – | – | – | – | 33 | 4 (≈ 7.15 µM) | 17 (≈ 30.4 µM) | 822 | 0.28 (≈ 0.5 µM) | 0.1 (≈ 0.179 µM) | 17 (≈ 30.4 µM)
4 | COCC1OC(=O)C(=CN(C)C(C=C(C)C(=O)OC)C(C)C)C2=C(O)C(=O)C3=C(C(OC(C)=O)CC4(C)C(O)CCC34)C21C (stereo not shown) [Compound 24, 4-[(11-Acetoxy-6,17-dihydroxy-1-methoxymethyl-10,13-dimethyl-3,7-dioxo-1,7,10,11,12,13,14,15,16,17-decahydro-2-oxa-cyclopenta[a]phenanthren-4-ylidenemethyl)-methyl-amino]-2,5-dimethyl-hex-2-enoic acid methyl ester] | – | – | – | – | – | – | – | 5400 | 1.05 (≈ 1.71 µM) | 4 (≈ 6.5 µM) | > 16200 | 0.13 (≈ 0.211 µM) | > 0.1 | 10.1 (≈ 16.3 µM)
5 | CCN(C=C1C(=O)OC(COC)C2(C)C1=C(O)C(=O)C1=C2C(OC(C)=O)CC2(C)C(O)CCC12)CCN(C)C (stereo not shown) [Compound 46, Acetic acid 4-{[(2-dimethylamino-ethyl)-ethyl-amino]-methylene}-6,17-dihydroxy-1-methoxymethyl-10,13-dimethyl-3,7-dioxo-1,3,4,7,10,11,12,13,14,15,16,17-dodecahydro-2-oxa-cyclopenta[a]phenanthren-11-yl ester] | – | – | – | – | – | – | – | 5.1 | 3.3 (≈ 6.04 µM) | – | 878 | 0.65 (≈ 1.19 µM) | 0.02 (≈ 0.0366 µM) | –
6 | COCC1OC(=O)C(=CN2CCOCC2)C2=C(O)C(=O)C3=C(C(OC(C)=O)CC4(C)C(O)CCC34)C21C (stereo not shown) [Compound 48, Acetic acid 6,17-dihydroxy-1-methoxymethyl-10,13-dimethyl-4-morpholin-4-ylmethylene-3,7-dioxo-1,3,4,7,10,11,12,13,14,15,16,17-dodecahydro-2-oxa-cyclopenta[a]phenanthren-11-yl ester] | – | – | – | – | – | – | – | 36.1 | 3 (≈ 5.8 µM) | – | 831 | 0.5 (≈ 0.966 µM) | 0.02 (≈ 0.0386 µM) | –

Results, then the compound that gave them:

Row | PI3K FP IC50 ([1]; Table 1) [µg/mL] | IC50 ([2]; Table 1) [µg/mL] | IC50 ([3]; Table 1) [µg/mL] | IC50 ([4]; Table 1) [nM] | IC50 ([5]; Table 1) [µg/mL] | IC50 ([6]; Table 1) [µg/mL] | IC50 ([7]; Table 1) [µg/mL] | IC50 [1] [nM] | IC50 ([2]; Table 2) [µg/mL] | IC50 ([3]; Table 2) [µg/mL] | IC50 ([4]; Table 2) [nM] | IC50 ([5]; Table 2) [µg/mL] | IC50 ([6]; Table 2) [µg/mL] | IC50 ([7]; Table 2) [µg/mL] | SMILES
7 | – | – | – | – | – | – | – | 918 | 1.2 (≈ 2.24 µM) | 1.7 (≈ 3.17 µM) | > 18700 | 0.07 (≈ 0.131 µM) | > 0.1 | 6 (≈ 11.2 µM) | COCC1OC(=O)C(=CN(CCO)CCO)C2=C(O)C(=O)C3=C(C(OC(C)=O)CC4(C)C(O)CCC34)C21C (stereo not shown) [Compound 19, Acetic acid 4-{[bis-(2-hydroxy-ethyl)-amino]-methylene}-6,17-dihydroxy-1-methoxymethyl-10,13-dimethyl-3,7-dioxo-1,3,4,7,10,11,12,13,14,15,16,17-dodecahydro-2-oxa-cyclopenta[a]phenanthren-11-yl ester]
8 | – | – | – | – | – | – | – | 440 | 0.62 (≈ 1.2 µM) | 1.1 (≈ 2.13 µM) | > 19300 | 0.06 (≈ 0.116 µM) | > 0.1 | 5 (≈ 9.66 µM) | COCC1OC(=O)C(=CN(C)C(C)(C)C)C2=C(O)C(=O)C3=C(C(OC(C)=O)CC4(C)C(O)CCC34)C21C (stereo not shown) [Compound 20, Acetic acid 4-[(tert-butyl-methyl-amino)-methylene]-6,17-dihydroxy-1-methoxymethyl-10,13-dimethyl-3,7-dioxo-1,3,4,7,10,11,12,13,14,15,16,17-dodecahydro-2-oxa-cyclopenta[a]phenanthren-11-yl ester]
9 | – | – | – | – | – | – | – | 22 | 3.9 (≈ 6.31 µM) | 12 (≈ 19.4 µM) | 3560 | 0.16 (≈ 0.259 µM) | 0.1 (≈ 0.162 µM) | 11 (≈ 17.8 µM) | COCC1OC(=O)C(=CN(CCCN(C)C)CCCN(C)C)C2=C(O)C(=O)C3=C(C(OC(C)=O)CC4(C)C(O)CCC34)C21C (stereo not shown) [Compound 21, Acetic acid 4-{[bis-(3-dimethylamino-propyl)-amino]-methylene}-6,17-dihydroxy-1-methoxymethyl-10,13-dimethyl-3,7-dioxo-1,3,4,7,10,11,12,13,14,15,16,17-dodecahydro-2-oxa-cyclopenta[a]phenanthren-11-yl ester]
10 | – | – | – | – | – | – | – | 15 | 4.3 (≈ 6.2 µM) | 20.5 (≈ 29.5 µM) | 1350 | 0.43 (≈ 0.62 µM) | 0.02 (≈ 0.0288 µM) | 16 (≈ 23.1 µM) | COCC1OC(=O)C(=CN(C)CCCN2CCN(c3ccc(OC)cc3)CC2)C2=C(O)C(=O)C3=C(C(OC(C)=O)CC4(C)C(O)CCC34)C21C (stereo not shown) [Compound 25, Acetic acid 6,17-dihydroxy-1-methoxymethyl-4-[({3-[4-(4-methoxy-phenyl)-piperazin-1-yl]-propyl}-methyl-amino)-methylene]-10,13-dimethyl-3,7-dioxo-1,3,4,7,10,11,12,13,14,15,16,17-dodecahydro-2-oxa-cyclopenta[a]phenanthren-11-yl ester]
11 | – | – | – | – | – | – | – | 19 | 3.9 (≈ 6.48 µM) | 17 (≈ 28.3 µM) | 2330 | 0.28 (≈ 0.465 µM) | 0.02 (≈ 0.0332 µM) | 21 (≈ 34.9 µM) | COCC1OC(=O)C(=CN(C)CCCN2CCN(C)CC2)C2=C(O)C(=O)C3=C(C(OC(C)=O)CC4(C)C(O)CCC34)C21C (stereo not shown) [Compound 26, Acetic acid 6,17-dihydroxy-1-methoxymethyl-10,13-dimethyl-4-({methyl-[3-(4-methyl-piperazin-1-yl)-propyl]-amino}-methylene)-3,7-dioxo-1,3,4,7,10,11,12,13,14,15,16,17-dodecahydro-2-oxa-cyclopenta[a]phenanthren-11-yl ester]
12 | – | – | – | – | – | – | – | 60.2 | 3 (≈ 5.66 µM) | – | 1110 | 0.37 (≈ 0.699 µM) | 0.02 (≈ 0.0378 µM) | – | COCC1OC(=O)C(=CN2CCC(=O)CC2)C2=C(O)C(=O)C3=C(C(OC(C)=O)CC4(C)C(O)CCC34)C21C (stereo not shown) [Compound 44, Acetic acid 6,17-dihydroxy-1-methoxymethyl-10,13-dimethyl-3,7-dioxo-4-(4-oxo-piperidin-1-ylmethylene)-1,3,4,7,10,11,12,13,14,15,16,17-dodecahydro-2-oxa-cyclopenta[a]phenanthren-11-yl ester]
13 | – | – | – | – | – | – | – | 369 | 5 (≈ 10.2 µM) | – | > 20500 | 0.65 (≈ 1.33 µM) | 0.1 (≈ 0.205 µM) | – | CCN(C=C1C(=O)OC(COC)C2(C)C3=C(C(=O)C(O)=C12)C1CCC(O)C1(C)CC3)CCN(C)C (stereo not shown) [Compound 45, 4-{[(2-Dimethylamino-ethyl)-ethyl-amino]-methylene}-6,17-dihydroxy-1-methoxymethyl-10,13-dimethyl-10,11,12,13,14,15,16,17-octahydro-1H,4H-2-oxa-cyclopenta[a]phenanthrene-3,7-dione]
14 | – | – | – | – | – | – | – | 63.3 | 5.8 (≈ 9.69 µM) | – | 568 | 0.9 (≈ 1.5 µM) | 0.05 (≈ 0.0835 µM) | – | COCC1OC(=O)C(=CN2CCC(N3CCCCC3)CC2)C2=C(O)C(=O)C3=C(C(OC(C)=O)CC4(C)C(O)CCC34)C21C (stereo not shown) [Compound 47, Acetic acid 4-[1,4′]bipiperidinyl-1′-ylmethylene-6,17-dihydroxy-1-methoxymethyl-10,13-dimethyl-3,7-dioxo-1,3,4,7,10,11,12,13,14,15,16,17-dodecahydro-2-oxa-cyclopenta[a]phenanthren-11-yl ester]
